Source: ChEMBL document CHEMBL1932967, “Synthesis and biological evaluation of novel derivatives of gambogic acid as anti-hepatocellular carcinoma agents” (Bioorg Med Chem Lett, 2012)
Converted amounts (≈) assume the structure as drawn. The source made the active and inactive calls. The rule behind the calls is not given here.

Legend:
[1] = Aqueous solubility of the compound; type: physicochemical; conditions: water (aqueous)
Bel-7402 [2] = experiment: Cytotoxicity against human Bel7402 cells after 72 hrs by MTT assay; type: functional, cell-based; conditions: Bel-7402, 72 h
SMMC-7721 = experiment: Cytotoxicity against human SMMC7721 cells after 72 hrs by MTT assay; type: functional, cell-based; conditions: SMMC-7721, 72 h
[3] = Cytotoxicity against human Bel7404 cells after 72 hrs by MTT assay; type: functional, cell-based; conditions: BEL-7404, 72 h
[4] = Cytotoxicity against human QGY7701 cells after 72 hrs by MTT assay; type: functional, cell-based; conditions: QGY7701, 72 h
HepG2 = experiment: cells; conditions: Homo sapiens, HepG2, 72 h
Description: Cytotoxicity against human HepG2 cells after 72 hrs by MTT assay

Bel-7402 [5] = experiment: Ratio of Gambogic acid IC50 to compound IC50 for human Bel7402 cells; type: functional
Bel-7402 [6] = experiment: Ratio of Taxol IC50 to compound IC50 for human Bel7402 cells; type: functional
[7] = Cytotoxicity against human HL-7702 cells at 1.235 uM after 72 hrs by MTT assay; type: cell-based; conditions: l02, 72 h
Bel-7402 [8] = experiment: Cytotoxicity against human Bel7402 cells at 1.235 uM after 72 hrs by MTT assay; type: functional, cell-based
Bel-7402 [9] = experiment: Induction of apoptosis in human Bel7402 cells assessed as viable cells at 0.025 uM after 48 hrs using V-FITC and propidium iodide staining by flow cytometry (reference value: 95.7 %); type: functional; conditions: Bel-7402, 48 h, read-out: Activity
Bel-7402 [10] = experiment: Induction of apoptosis in human Bel7402 cells assessed as early apoptotic cells at 0.025 uM after 48 hrs using V-FITC and propidium iodide staining by flow cytometry (reference value: 1.4 %); type: functional
Bel-7402 [11] = experiment: Induction of apoptosis in human Bel7402 cells assessed as late apoptotic cells at 0.025 uM after 48 hrs using V-FITC and propidium iodide staining by flow cytometry (reference value: 2.2 %); type: functional
Bel-7402 [12] = experiment: Induction of apoptosis in human Bel7402 cells assessed as pre-necrotic cells at 0.025 uM after 48 hrs using V-FITC and propidium iodide staining by flow cytometry (reference value: 0.7 %); type: functional
Bel-7402 [13] = experiment: Induction of apoptosis in human Bel7402 cells assessed as viable cells at 0.1 uM after 48 hrs using V-FITC and propidium iodide staining by flow cytometry (reference value: 95.7 %); type: functional; conditions: Bel-7402, 48 h, read-out: Activity
Bel-7402 [14] = experiment: Induction of apoptosis in human Bel7402 cells assessed as early apoptotic cells at 0.1 uM after 48 hrs using V-FITC and propidium iodide staining by flow cytometry (reference value: 1.4 %); type: functional
Bel-7402 [15] = experiment: Induction of apoptosis in human Bel7402 cells assessed as late apoptotic cells at 0.1 uM after 48 hrs using V-FITC and propidium iodide staining by flow cytometry (reference value: 2.2 %); type: functional
Bel-7402 [16] = experiment: Induction of apoptosis in human Bel7402 cells assessed as pre-necrotic cells at 0.1 uM after 48 hrs using V-FITC and propidium iodide staining by flow cytometry (reference value: 0.7 %); type: functional
Bel-7402 [17] = experiment: Induction of apoptosis in human Bel7402 cells assessed as viable cells at 0.4 uM after 48 hrs using V-FITC and propidium iodide staining by flow cytometry (reference value: 95.7 %); type: functional; conditions: Bel-7402, 48 h, read-out: Activity
Bel-7402 [18] = experiment: Induction of apoptosis in human Bel7402 cells assessed as early apoptotic cells at 0.4 uM after 48 hrs using V-FITC and propidium iodide staining by flow cytometry (reference value: 1.4 %); type: functional
Bel-7402 [19] = experiment: Induction of apoptosis in human Bel7402 cells assessed as late apoptotic cells at 0.4 uM after 48 hrs using V-FITC and propidium iodide staining by flow cytometry (reference value: 2.2 %); type: functional
Bel-7402 [20] = experiment: Induction of apoptosis in human Bel7402 cells assessed as pre-necrotic cells at 0.4 uM after 48 hrs using V-FITC and propidium iodide staining by flow cytometry (reference value: 0.7 %); type: functional
Bel-7402 [21] = experiment: Induction of apoptosis in human Bel7402 cells after 48 hrs using V-FITC and propidium iodide staining by flow cytometry; type: functional, cell-based

Compound	solubility [1] [µg/mL]	IC50 (Bel-7402 [2]) [nM]	IC50 (SMMC-7721) [nM]	IC50 [3] [nM]	IC50 [4] [nM]	IC50 (HepG2) [nM]	further results
CC(C)=CCC[C@]1(C)C=Cc2c(O)c3c(c(CC=C(C)C)c2O1)O[C@]12C(=C[C@@H]4C[C@H]1C(C)(C)O[C@@]2(C/C=C(/C)C(=O)OCCCCN1CCNCC1)C4=O)C3=O	1320 (≈ 1720 µM)	16700	23500	28600	4120	24100	
CC(C)=CCC[C@]1(C)C=Cc2c(O)c3c(c(CC=C(C)C)c2O1)O[C@]12C(=C[C@@H]4C[C@H]1C(C)(C)O[C@@]2(C/C=C(/C)C(=O)OCCN1CCNCC1)C4=O)C3=O	1360 (≈ 1840 µM)	19700	28400	31100	5430	20100	
CC(C)=CCC[C@]1(C)C=Cc2c(O)c3c(c(CC=C(C)C)c2O1)O[C@]12C(=C[C@@H]4C[C@H]1C(C)(C)O[C@@]2(C/C=C(/C)C(=O)OCCCN1CCN(CCO)CC1)C4=O)C3=O	1230 (≈ 1540 µM)	3120	6610	8080	960	3250	
CC(C)=CCC[C@]1(C)C=Cc2c(O)c3c(c(CC=C(C)C)c2O1)O[C@]12C(=C[C@@H]4C[C@H]1C(C)(C)O[C@@]2(C/C=C(/C)C(=O)OCCN1CCCCC1)C4=O)C3=O	870 (≈ 1180 µM)	1720	6520	7230	700	3180	
CC(C)=CCC[C@]1(C)C=Cc2c(O)c3c(c(CC=C(C)C)c2O1)O[C@]12C(=C[C@@H]4C[C@H]1C(C)(C)O[C@@]2(C/C=C(/C)C(=O)OCCCN1CCNCC1)C4=O)C3=O	1350 (≈ 1790 µM)	18100	26200	27600	4380	19100	
CC(C)=CCC[C@]1(C)C=Cc2c(O)c3c(c(CC=C(C)C)c2O1)O[C@]12C(=C[C@@H]4C[C@H]1C(C)(C)O[C@@]2(C/C=C(/C)C(=O)O)C4=O)C3=O [GAMBOGIC ACID]	13 (≈ 20.7 µM)	750	1130	4700	240	1170	
CC(C)=CCC[C@]1(C)C=Cc2c(O)c3c(c(CC=C(C)C)c2O1)O[C@]12C(=C[C@@H]4C[C@H]1C(C)(C)O[C@@]2(C/C=C(/C)C(=O)OCCCN1CCOCC1)C4=O)C3=O	1210 (≈ 1600 µM)	45	730	1250	120	67	Ratio IC50 (Bel-7402 [5]): 16.7; Ratio IC50 (Bel-7402 [6]): 27.8; Activity [7]: Toxic; Activity (Bel-7402 [8]): Active; viability at 0.025 µM (Bel-7402 [9]): 87.8%; Activity (Bel-7402 [10]): 3%; Activity (Bel-7402 [11]): 7.8%; Activity (Bel-7402 [12]): 1.4%; viability at 0.1 µM (Bel-7402 [13]): 72.2%; Activity (Bel-7402 [14]): 22.8%; Activity (Bel-7402 [15]): 4.6%; Activity (Bel-7402 [16]): 0.4%; viability at 0.4 µM (Bel-7402 [17]): 49.6%; Activity (Bel-7402 [18]): 44.9%; Activity (Bel-7402 [19]): 5%; Activity (Bel-7402 [20]): 0.5%; Activity (Bel-7402 [21]): Dose-dependent effect
CC(C)=CCC[C@]1(C)C=Cc2c(O)c3c(c(CC=C(C)C)c2O1)O[C@]12C(=C[C@@H]4C[C@H]1C(C)(C)O[C@@]2(C/C=C(/C)C(=O)OCCCCN1CCN(CCO)CC1)C4=O)C3=O	1210 (≈ 1490 µM)	1100	3520	9650	2560	1160	
CC(C)=CCC[C@]1(C)C=Cc2c(O)c3c(c(CC=C(C)C)c2O1)O[C@]12C(=C[C@@H]4C[C@H]1C(C)(C)O[C@@]2(C/C=C(/C)C(=O)OCCN1CCN(CCO)CC1)C4=O)C3=O	1260 (≈ 1610 µM)	3360	8570	10200	1860	9900	
CC(C)=CCC[C@]1(C)C=Cc2c(O)c3c(c(CC=C(C)C)c2O1)O[C@]12C(=C[C@@H]4C[C@H]1C(C)(C)O[C@@]2(C/C=C(/C)C(=O)OCCCN1CCCCC1)C4=O)C3=O	840 (≈ 1110 µM)	86	1060	1420	430	150	Ratio IC50 (Bel-7402 [5]): 8.7; Ratio IC50 (Bel-7402 [6]): 14.5
CC(C)=CCC[C@]1(C)C=Cc2c(O)c3c(c(CC=C(C)C)c2O1)O[C@]12C(=C[C@@H]4C[C@H]1C(C)(C)O[C@@]2(C/C=C(/C)C(=O)OCCCCN1CCOCC1)C4=O)C3=O	1170 (≈ 1520 µM)	2130	1540	2110	530	1510	
CC(C)=CCC[C@]1(C)C=Cc2c(O)c3c(c(CC=C(C)C)c2O1)O[C@]12C(=C[C@@H]4C[C@H]1C(C)(C)O[C@@]2(C/C=C(/C)C(=O)OCCCCN1CCCCC1)C4=O)C3=O	780 (≈ 1020 µM)	3140	4530	6460	4360	5590	
CC(=O)O[C@H]1C(=O)[C@@]2(C)[C@H]([C@H](OC(=O)c3ccccc3)[C@]3(O)C[C@H](OC(=O)[C@H](O)[C@@H](NC(=O)c4ccccc4)c4ccccc4)C(C)=C1C3(C)C)[C@]1(OC(C)=O)CO[C@@H]1C[C@@H]2O [PACLITAXEL]		1250	880	820	40	50	
CC(C)=CCC[C@]1(C)C=Cc2c(O)c3c(c(CC=C(C)C)c2O1)O[C@]12C(=C[C@@H]4C[C@H]1C(C)(C)O[C@@]2(C/C=C(/C)C(=O)OCCN1CCOCC1)C4=O)C3=O	1230 (≈ 1660 µM)	590	1590	1990	410	940	
